# According to patent publication US20160166637A1, “METHODS OF TREATING A CANCER THROUGH TARGETED DISRUPTION OF ALPHA CONNEXIN 43-ZONULA OCCLUDENS-1 (ZO-1) INTERACTION” (Virginia Tech Intellectual Properties, Inc., priority 2013, published 2016):
# Legend:
# [1] = taken orally; cited from earlier work
# GBM cells = conditions: cited from earlier work
# [2] = system: C6 cells stably expressing Cx43; assay: Boyden chamber motility assay (Example 4, serum-free pre-treatment); assay type: cell-based; conditions: both concentrations of ACT-1 (1 μM, 25 μM); 24 hours serum-free pre-treatment, 4 hours
# Procedure: FIGS. 10A-10C are images of a motility experiment using C6 cells stably expressing Cx43 showing no treatment (FIG. 10A), 25 μM reverse sequence peptide (control peptide) (FIG. 10B) and 25 μM ACT-1 (FIG. 10C).
# FIG. 10D is a graph showing the results of the motility experiment using C6 cells stably expressing Cx43 showing no treatment, 1 μM ACT-1, 25 μM ACT-1, 1 μM reverse sequence peptide (control peptide), and 25 μM reverse sequence peptide (control peptide).
# (§1) In this example, peptides were added after cells were incubated in serum-free media, then 24 hours of pre-treatment was allowed in the serum-free conditions, and finally the cells were transferred, without typsinizing, to Boyden chamber and incubated for 4 hours. […] With this example, the results of the C6 cells seemed to be similar to wt-C6 cells.
# wild-type C6 cells = assay: Boyden chamber motility assay (Example 4) on wild-type cells; assay type: cell-based; conditions: both concentrations of ACT-1 (1 μM, 25 μM)
# Procedure: as §1
# The same situation was true when the same experiment was performed on wild-type C6 cells.
# GS9-6 cells = assay: Viability of glioma stem cell line; assay type: cell-based, human; conditions: alone or in combination
# Procedure: FIG. 13 is a graph showing the effects of ACT-1 treatment at concentrations from 30 to 120 μM on the viability of the glial stem cell (GSC) line GS9-6 with or without temozolomide.
# The ACT-1 peptide was tested on a glioma stem cell (GSC) line alone or in combination with temozolomide (TMZ).
# [3] = in vivo; cited from earlier work
# U87 glioma cells = assay: Boyden chamber motility assay (Example 3); assay type: cell-based, human; conditions: overnight pre-treatment in 10% serum, 4 hour incubation; vs no treatment and control peptide
# Procedure: After an overnight peptide pre-treatment in 10% serum, two glioma cell lines, c6 and U87, were seeded in serum-free media containing peptides into Boyden chamber transwell inserts with 8 μm pores in the membrane and then filled the bottom wells with media containing 10% FBS as a chemoattractant. […] Then the migrated cells were fixed, stained with Hoescht dye, and imaged on an epifluorescence microscope.
# LN229/GSCs = assay: Glioma xenograft mouse model, tumor growth; assay type: in vivo, mice; conditions: 200 μM/tumor ACT-1, 100 mg/kg TMZ
# Description: To further validate the therapeutic effect of ACT-1 in vivo, tumor growth was monitored using a glioma xenograft mouse model. As GS9-6 cells grow slowly in mice, the present inventors elected to use LN229/GSCs, isolated from LN229 human GBM cell line. […] LN229/GSCs were first injected into the flanks of immunocompromised mice and tumors (more than 100 mm3) were detected in all mice in 14 days. By contrast, GS9-6 cells form a tumor in 6 months (data not shown). Treatments at day 14 were then started. First, 100 mg/kg ACT-1 was injected subcutaneously. 24 hours later, mice were treated with 7.5 mg/kg TMZ (dissolved in DMSO) or vehicle DMSO intraperitoneally. Such treatment regime was repeated three times a week for three weeks, and tumor growth was monitored for another week. […] Taken together, these examples provide a firm support for potential clinical application of ACT-1 in treating human or canine glioblastoma patients.
# FIG. 21 is a plot of tumor volume over 53 days for untreated, 200 μM/tumor ACT-1, 100 mg/kg TMZ treated, and combinatorial 200 μM/tumor ACT-1 and 100 mg/kg TMZ treated mice. FIG. 22 is a graph of tumor volumes at 53 days and FIG. 23 is an image of tumor volumes at 53 days for these treatments.
# GS9-6 glioma stem cells = assay: Sphere/colony formation assay (self-renewal); assay type: cell-based, human; conditions: FIG. 15
# Description: To further investigate the effect of ACT-1 on glioma stem cells, the present inventors measured the capacity of glioma stem cells to self-renew. The unique feature that makes glioma stem cells different from other glioma cells is that glioma stem cells are able to copy themselves (termed as self-renewal). The well-established approach to measure self-renewal of stem cells is sphere/colony formation assay. The self-renewal of GS9-6 glioma stem cells treated with ACT-1 was then monitored. […] Two different doses of ACT-1 and TMZ were tested. Both treatments inhibited the self-renewal of GS9-6 (FIGS. 16 and 17). Thus, the data strongly indicate that ACT-1 sensitizes glioblastoma cells to TMZ.
# [4] = system: Cx-deficient C6 glioma cell line; assay: Cell aggregation assay on Cx-deficient cells; assay type: cell-based; conditions: 1 μM and 25 μM compared
# U87MG glioma cells = assay: Cell aggregation assay, aggregation index (AI); assay type: cell-based, human; conditions: 25 μM, 48 hours, serum-free
# Procedure: UM87MG glioma cells, which express Cx43, were cultured in serum-free conditions permissive to aggregation. The cells were treated with the ACT-1 peptide for 48 hours and then imaged with phase-contrast microscopy. […] To quantitate the extent of aggregation, ImageJ software was used to collect size information about the aggregates in these images and from that information an aggregation index was calculated for each image. The AI is defined as the total area of aggregation in a field divided by the number of single, unaggregated cells in that field. So an increase in the ratio of aggregation area to unaggregated cells would increase the AI and indicate a higher propensity to aggregate.
# Cx43 CT = biological target: T1, Cx43 CT (Homo sapiens, UniProt P17302); assay: EDAC cross-linking of ACT-1 and Cx43 carboxy terminal peptide (polyacrylamide gel); assay type: binding
# T1 construct: EDAC cross-linking reaction of ACT-1 and connectin 43 carboxy terminal peptide
# T1 sequence (P17302 229-382 limits assumed): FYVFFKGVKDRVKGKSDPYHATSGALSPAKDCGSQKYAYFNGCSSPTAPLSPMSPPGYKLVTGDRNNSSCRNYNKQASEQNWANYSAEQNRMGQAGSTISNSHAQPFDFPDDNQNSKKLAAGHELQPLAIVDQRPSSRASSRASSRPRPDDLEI
# Description: FIG. 6 is an image of a polyacrylamide gel showing EDAC cross-linking of ACT-1 and Cx43-CT.
# FIG. 6 is an image of a polyacrylamide gel showing EDAC cross-linking reaction of ACT-1 and connectin 43 carboxy terminal peptide. […] ACT-1 is shown by the zero order cross-linker EDAC.
# Cx43 CT domain = Cx43 CT domain (Homo sapiens, UniProt P17302); assay: Dot blot binding of biotinylated AAP10 peptides to Cx43 CT; conditions: biotinylated peptide, 500-1 ng
# Cx43 CT domain, sequence (P17302 229-382 limits assumed): as above
# Description: FIG. 5 is an image showing the results of a dot blot assay for testing binding of AAP10 and AAP10-pTyr with Connexin43-carboxy terminus (CT).
# By contrast, the tyrosine phosphorylated isoform biotinylated AAP10-pTyr show no affinity for Cx43 CT.
# [5] = phase I, brain cancer patients; cited from earlier work
compound,measurement,setting,value
C[C@H]1c2cccc(O)c2C(=O)C2=C(O)[C@]3(O)C(=O)C(C(N)=O)=C(O)[C@@H](N(C)C)[C@@H]3[C@@H](O)[C@@H]21 [Doxycycline],CSF to serum ratio,[1],~0.26
CC#C[C@]1(O)CC[C@H]2[C@@H]3CCC4=CC(=O)CCC4=C3[C@@H](c3ccc(N(C)C)cc3)C[C@@]21C [mifepristone],sensitization of GBM cells to TMZ,GBM cells,sensitizes GBM cells to TMZ
ACT-1: SEQ ID NO:9: Antennapedia sequence RQPKIWFPNRRKPWKK linked to Cx43 c-terminal 9 amino acids RPRPDDLEI (RQPKIWFPNRRKPWKKRPRPDDLEI),decrease in migration,[2],5 ×
same,decrease in motility across the Boyden chamber,wild-type C6 cells,~5 ×
same,viability of GS9-6 cells,GS9-6 cells,only mildly reduced the viability
same,half-life in the body,[3],less than a few hours
same,cell migration across the Boyden chamber membrane,U87 glioma cells,significant decrease in cell migration
same,tumor volume at 53 days,LN229/GSCs,may promote tumor growth
same,self-renewal of GS9-6 cells,GS9-6 glioma stem cells,not affected
same,aggregation versus controls,[4],no significant difference in aggregation
same,formation of amorphous clumps (phase-contrast images),U87MG glioma cells,tended to form amorphous clumps
same,aggregation index (AI),U87MG glioma cells; Bonferroni t-test,significantly higher AIs relative to controls
same,effect of binding on Cx43 CT homodimers,Cx43 CT; EDAC cross-linking,reduces Cx43 CT homodimers
same,interaction with the Cx43 CT (EDAC cross-linking),Cx43 CT; zero order cross-linker EDAC,interacts with the Cx43 CT
antiarrhythmic peptide 10 [AAP10],affinity for the Cx43 CT domain in a dot blot,Cx43 CT domain,concentration dependent affinity
cintredekin besudotox,adverse effects,[5],no significant adverse effects were observed
